The results in this text go back to patent US12617783B2, “Heterocyclic GLP-1R agonists” (BIOMEA FUSION, INC., priority 2024, dated 2026).

The structures appear in SMILES notation. Some results are limits rather than exact numbers.

The target in this assay is T1, human GLP-1R (Homo sapiens, UniProt P43220).
T1 construct: host or cells: HEK293
T1 sequence (P43220 24-463): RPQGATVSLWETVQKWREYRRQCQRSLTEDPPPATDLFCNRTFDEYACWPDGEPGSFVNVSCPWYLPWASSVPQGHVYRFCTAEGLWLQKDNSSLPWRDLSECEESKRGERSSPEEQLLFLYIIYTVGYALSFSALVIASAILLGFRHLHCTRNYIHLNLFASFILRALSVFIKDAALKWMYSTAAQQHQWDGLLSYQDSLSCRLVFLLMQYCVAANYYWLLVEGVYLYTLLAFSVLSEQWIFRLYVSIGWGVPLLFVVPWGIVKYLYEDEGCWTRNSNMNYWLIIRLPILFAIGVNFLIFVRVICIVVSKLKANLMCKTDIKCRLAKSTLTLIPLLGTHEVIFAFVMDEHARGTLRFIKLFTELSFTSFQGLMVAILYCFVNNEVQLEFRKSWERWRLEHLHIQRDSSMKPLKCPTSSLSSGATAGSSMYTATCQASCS
Nature of the assay: GLP-1R cAMP assay (Example B1b, HTRF, 30 min at 37°). It counts as cell-based. The conditions noted are these: cAMP accumulation in HEK293 expressing human GLP-1R, no BETP, 30 min at 37° (Method B1b), Table 1. Here is the method:
Assay was carried out with HEK293 expressing human GLP-1R using HTRF assay, developed by Wuxi Apptec. The method is a competitive assay between native cAMP produced by the cells and exogenous cAMP labeled with a proprietary dye d2. The tracer binding is visualized by a mAb anti-cAMP labeled with Cryptate. The signal (i.e. energy transfer) is inversely proportional to the concentration of CAMP in either standard or experimental sample. Compounds were tested in the absence of BETP. Ten microliter of cell suspension in assay buffer (5 mM HEPES, 500 μM IBMX, 0.1% BSA) were added to each well (1,000 cells per well) in a low volume 384-well plate for the assay. Serially diluted compounds were added in 100 nL volume to duplicate wells, by Labcyte Echo. GLP-1 (7-37) was used as positive control. Assay plate was incubated for 30 minutes at 37°. Stock of cAMP Detection Solution was prepared by mixing 38 parts of cAMP lysis buffer, 1 part of cAMP-D2, 1 part of anti-cAMP cryptate reagent (Cisbio #62AM4PEJ). Ten microliter of the cAMP Detection Solution was added to each well, and the assay plate was incubated for 1 hour at room temperature in the dark. Plates were read on Envision plate reader. The data were analyzed by ScreenUltra in Dotmatics, with % activation expressed using following formula: (Signal ratio […]*10000−negative control)/(postive control−negative control)*100. Dose response curves were plotted and EC50 values calculated by non-linear regression using 4-parameter fit. The potency (EC50) values for cAMP accumulation in HEK293 cells are reported in the Table 1 below (for compounds ID 610-708).
Molecule `Cc1cc(-n2nc3c(c2-n2ccn(-c4ccc5c(c4)C4(CC4)C(=O)N5C)c2=O)[C@@H]2CCC[C@H](C3)N2C(=O)c2cc3cc([C@H]4CCOC(C)(C)C4)ccc3n2[C@@]2(c3noc(=O)[nH]3)C[C@@H]2C)cc(C)c1F` [Compound 714, 3-((1S,2S)-1-(5-((S)-2,2-dimethyltetrahydro-2H-pyran-4-yl)-2-((4S,8R)-2-(4-fluoro-3,5-dimethylphenyl)-3-(3-(1′-methyl-2′-oxospiro[cyclopropane-1,3′-indolin]-5′-yl)-2-oxo-2,3-dihydro-1H-imidazol-1-yl)-4,5,6,7,8,9-hexahydro-2H-[4,8]epiminocycloocta [c]pyrazole-10-carbonyl)-1H-indol-1-yl)-2-methylcyclopropyl)-1,2,4-oxadiazol-5 (4H)-one] returned an EC50 of 0.002 µM.
As to `Cc1cc(-n2nc3c(c2-n2ccn(-c4ccc5c(cnn5C)c4F)c2=O)[C@@H]2CC[C@H](C3)N2C(=O)c2cc3cc([C@H]4CCOC(C)(C)C4)cc(F)c3n2[C@@]2(c3noc(=O)[nH]3)C[C@@H]2C)cc(C)c1F` [Compound 711, 3-[(1S,2S)-1-[5-[(4S)-2,2-dimethyltetrahydropyran-4-yl]-7-fluoro-2-[(1S,8R)-4-(4-fluoro-3,5-dimethyl-phenyl)-3-[3-(4-fluoro-1-methyl-indazol-5-yl)-2-oxo-imidazol-1-yl]-4,5,11-triazatricyclo[6.2.1.02,6]undeca-2,5-diene-11-carbonyl]indol-1-yl]-2-methyl-cyclopropyl]-4H-1,2,4-oxadiazol-5-one], the EC50 came out at 0.006 µM.
Molecule `Cc1cc(-n2nc3c(c2-n2ccn(-c4ccc5c(cnn5C)c4F)c2=O)[C@@H]2CCC[C@H](C3)N2C(=O)c2cc3cc([C@@H]4CCOC(C)(C)C4)cc(F)c3n2[C@@]2(c3noc(=O)[nH]3)C[C@@H]2C)cc(C)c1F` [Compound 701, 3-((1S,2S)-1-(5-((R)-2,2-dimethyltetrahydro-2H-pyran-4-yl)-7-fluoro-2-((4S,8R)-3-(3-(4-fluoro-1-methyl-1H-indazol-5-yl)-2-oxo-2,3-dihydro-1H-imidazol-1-yl)-2-(4-fluoro-3,5-dimethylphenyl)-4,5,6,7,8,9-hexahydro-2H-4,8-epiminocycloocta [c]pyrazole-10-carbonyl)-1H-indol-1-yl)-2-methylcyclopropyl)-1,2,4-oxadiazol-5 (4H)-one] came in with a half-maximal effective concentration (EC50) of over 0.1 µM.
`Cc1cc(-n2nc3c(c2-n2ccn(-c4ccc5c(c4)N(C)C(=O)C5=O)c2=O)[C@@H]2CCC[C@H](C3)N2C(=O)c2cc3cc([C@H]4CCOC(C)(C)C4)ccc3n2[C@@]2(c3noc(=O)[nH]3)C[C@@H]2C)cc(C)c1F` [Compound 710, 6-(3-((4S,8R)-10-(5-((S)-2,2-dimethyltetrahydro-2H-pyran-4-yl)-1-((1S,2S)-2-methyl-1-(5-oxo-4,5-dihydro-1,2,4-oxadiazol-3-yl)cyclopropyl)-1H-indole-2-carbonyl)-2-(4-fluoro-3,5-dimethylphenyl)-4,5,6,7,8,9-hexahydro-2H-4,8-epiminocycloocta [c]pyrazol-3-yl)-2-oxo-2,3-dihydro-1H-imidazol-1-yl)-1-methylindoline-2,3-dione] returned a concentration for a half-maximal effect (EC50) of 0.004 µM.
As for `Cc1cc(-n2nc3c(c2-n2ccn(-c4ccc5c(cnn5C)c4F)c2=O)[C@@H]2CC[C@H](C3)N2C(=O)c2cc3cc(C4CCOC(C)(C)C4)c(F)cc3n2[C@@]2(c3noc(=O)[nH]3)C[C@@H]2C)cc(C)c1F` (stereo partly drawn) [Compound 716, 3-[(1S,2S)-1-[5-(2,2-dimethyltetrahydropyran-4-yl)-6-fluoro-2-[(1S,8R)-4-(4-fluoro-3,5-dimethyl-phenyl)-3-[3-(4-fluoro-1-methyl-indazol-5-yl)-2-oxo-imidazol-1-yl]-4,5,11-triazatricyclo[6.2.1.02,6]undeca-2,5-diene-11-carbonyl]indol-1-yl]-2-methyl-cyclopropyl]-4H-1,2,4-oxadiazol-5-one], the figure is 0.005 µM.

As a reminder, the EC50 is the concentration needed to bring the measured effect to its halfway point. A high value points to a less potent agent.
